Reference: patent US5962502A, “Polyamidic acid derivatives with antigastrin activity, a method for their preparation, and their pharmaceutical use” (priority 1993, dated 1999)

Key:
central CCK-B receptor = biological target: T1, central CCK-B receptor (Cavia porcellus, UniProt H0VZC5); test: Inhibition of the binding of [3-H][N-methyl-N-leucine]CCK-8 to guinea-pig cortical membranes; settings: for times more active than the corresponding diastereoisomer at the carbon atom (**): binding, guinea-pig cortex; for IC50: 150 minutes at 25° C.
T1 construct: Cerebral cortices of male white guinea-pigs were thus used; from tissue; host or cells: cerebral cortex membranes of male white guinea-pigs
T1 sequence (H0VZC5 1-426): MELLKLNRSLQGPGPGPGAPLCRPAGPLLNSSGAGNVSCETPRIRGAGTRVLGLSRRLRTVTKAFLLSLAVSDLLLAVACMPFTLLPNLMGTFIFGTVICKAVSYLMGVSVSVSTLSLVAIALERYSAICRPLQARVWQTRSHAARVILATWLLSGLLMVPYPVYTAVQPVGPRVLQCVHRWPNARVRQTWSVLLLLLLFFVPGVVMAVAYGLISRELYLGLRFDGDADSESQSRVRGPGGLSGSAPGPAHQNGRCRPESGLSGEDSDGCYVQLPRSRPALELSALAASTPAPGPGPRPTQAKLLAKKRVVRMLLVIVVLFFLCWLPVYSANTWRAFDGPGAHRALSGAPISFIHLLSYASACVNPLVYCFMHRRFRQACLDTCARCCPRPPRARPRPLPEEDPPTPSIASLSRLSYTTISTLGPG
How it was run: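 Male guinea-pig cerebral cortex membranes (about 300 mcg protein/ml) incubated with non-sulphated [3-H]-labelled CCK-8 tracer and compound 150 minutes at 25° C. Pellet radioactivity counted by liquid scintillation; nonspecific binding defined with 5.10^-6 M CCK-8.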

[1] = biological target: T2, gastrin receptors or type-B cholecystokinin (CCK-B) receptors (Oryctolagus cuniculus, UniProt P46627); test: Inhibition of the gastrin-induced increase of cytosolic calcium in rabbit gastric mucous-membrane cells (Fura 2); type: cell-based; settings: for Ratio IC50 Binding cortex / IC50 (gastric mucous cells): binding values taken from Table 3; for CCK-B-antagonistic activity IC50 (II): data taken from Table 4 (rabbit gastric mucous cells), reprinted in Table 6; for IC50, inhibition of the increase of cytosolic calcium: rabbit gastric mucous cells enriched in parietal cells, gastrin 5×10^-8
T2 construct: Rabbit gastric mucous-membrane cells were prepared by conventional techniques; endogenous in cells; host or cells: freshly isolated rabbit gastric mucosal cells, enriched by elutriation to about 70% parietal cells
T2 sequence (P46627 1-452): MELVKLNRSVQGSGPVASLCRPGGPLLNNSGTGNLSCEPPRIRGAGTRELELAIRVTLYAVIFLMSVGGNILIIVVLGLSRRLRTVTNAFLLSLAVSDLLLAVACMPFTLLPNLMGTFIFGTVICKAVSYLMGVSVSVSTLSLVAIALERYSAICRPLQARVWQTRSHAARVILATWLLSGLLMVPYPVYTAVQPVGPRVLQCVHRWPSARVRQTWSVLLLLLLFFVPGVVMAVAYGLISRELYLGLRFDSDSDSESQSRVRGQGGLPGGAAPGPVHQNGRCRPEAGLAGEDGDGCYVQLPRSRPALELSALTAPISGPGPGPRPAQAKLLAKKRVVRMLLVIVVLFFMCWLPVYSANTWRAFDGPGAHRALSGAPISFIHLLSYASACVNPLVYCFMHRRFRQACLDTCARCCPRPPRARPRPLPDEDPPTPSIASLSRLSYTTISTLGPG
How it was run: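 Enzymatically dispersed (collagenase/pronase) rabbit gastric mucosal cells, loaded with Fura 2, were suspended at 0.8×10^6/ml in HEPES-buffered saline at 37 °C with stirring. Gastrin-induced cytosolic Ca²⁺ rise was measured with and without compound by fluorescence (excitation 340/380 nm, emission 505 nm).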

Compound | times more active than the corresponding diastereoisomer at the carbon atom (**) (central CCK-B receptor) | inhibition of the binding of [N-methyl-N-leucine]CCK-8, result in words (central CCK-B receptor; guinea-pig cortical membranes) | IC50 (central CCK-B receptor; guinea-pig cortical membranes) | Ratio IC50 Binding cortex / IC50 (gastric mucous cells) [1] | CCK-B-antagonistic activity IC50 (II) [1] | IC50 order of magnitude, peripheral antigastrin activity ([1]; rabbit gastric mucous cells) | IC50, inhibition of the increase of cytosolic calcium [1]
O=C(CC[C@@H](NC(=O)c1cc(Cl)cc(Cl)c1)C(=O)N1CCC2(CCCC2)CC1)N[C@H](Cc1c[nH]c2ccccc12)C(=O)O [Compound 21] | about 5 times | potent inhibitors | 40 nM | 4.0 | 10 nM | nanomolar order of magnitude | 10 nM
O=C(CC[C@@H](NC(=O)c1cc(Cl)cc(Cl)c1)C(=O)N1CCC2(CCCC2)CC1)N[C@H](Cc1ccccc1)C(=O)O [Compound 9, (R,R)-1[(1-carboxy-2-phenylethyl)amino]-1 oxo-5-(8-azaspiro[4.5]decan-8-yl)-4-(3,5-dichloro-benzoylamino)-5-oxopentanoic acid] | about 5 times |  | 150 nM | 3.0 | 50 nM |  | 50 nM
